Series [1] deals with monolayer rat pituitary cell cultures. The experiment in a line: GH release from monolayer rat pituitary cell cultures. In kind it is cell-based. As for the experimental part:
In vitro analysis of the synthetic peptide: The synthetic Nle^27 -hpGRF was added to the medium of monolayer rat pituitary cell cultures and incubated. After incubation, the media was assayed for GH released from the pituitary cells and compared to control cultures (medium alone). The amount of GH released in response to varying doses of Nle^27 -hpGRF was compared to the GH release induced by the same concentrations of the synthetic hpGRF.

The nature of series [2]: Susceptibility to oxidation / loss of biological activity (stability). In kind it is physicochemical.
The conditions of series [3]: storage or in a living system; believed to be caused at least partly by oxidation of methionine 27; cited from earlier work.

Entries after “also recorded” stand apart in the source; their conditions may differ. Non-standard residues stand in square brackets, D forms with d. No end group written: not given here. Nle = CCCC[C@H](N)C(=O)O

In the case of “hpGRF: human pancreatic tumor growth hormone-releasing factor, 44 amino acid residues, methionine at position 27”, the “GH-releasing activity with reducing agent added to the test medium” value in series [1] (L-ascorbic acid added to test medium, compared to medium without reducing agent) is “enhance the GH-releasing activity”. Besides, in series [2], the “loss of biological activity through methionine oxidation” value is reported as “drastic loss of biological activity”. Also, in series [3], the “loss of biological activity during storage or when introduced into a living system” value is recorded as “drastic loss of biological activity”.
As for “YADAIFTNSYRKVLGQLSARKLLQDI[Nle]SRQQGQSNQERGARARL-NH2 [Nle^27 -hpGRF]”, the “GH-releasing activity (GH released into medium) compared with hpGRF” value in series [1] (varying doses, same concentrations as synthetic hpGRF, tested at the same time under identical conditions) was “significantly greater biological activity than synthetic hpGRF; also recorded: greater growth hormone-releasing activity than the natural compound; also recorded: greater GH-releasing activity than original hpGRF”. The resistance to oxidation result in series [2] (norleucine at position 27 instead of methionine) is “resistant to oxidation”.
As for corticotropin-releasing factor, the “loss of biological activity through methionine oxidation” value in series [2] is recorded as “Loss of biologic activity”.
